The source of these data is patent US9750760B2, “Uridine diphosphate derivatives, prodrugs, compositions and methods for treating neurodegenerative disorders” (Tufts University, priority 2012, dated 2017).

The test system of test [1] is PSAPP mice. Nature of the test: Hippocampal long-term potentiation (LTP) recording, CA1, high-frequency stimulation. To be noted: acute treatment. Format: in vivo, mouse. As to the method: Hippocampal slices (350 μm thick) were prepared from 6-month-old PSAPP mice. Baseline responses were obtained every 10 seconds and Input-output (I/O) curves, paired-pulse modification and LTP were successively measured. The stimulation intensity was set to a level that gives a value of 30% of the maximum obtained. LTP were induced by high frequency stimulation (HFS, 100 pulses at 100 Hz, four times) or by theta-burst stimulation (TBS, 10 bursts at 5 Hz, repeated 10 times in 15 s intervals).
Accumulated evidence has shown that amyloid peptides naturally secreted or isolated from Alzheimer's brains impair synaptic plasticity, especially hippocampal long-term potentiation (Walsh et al., 2002). Therefore, we further performed LTP recordings in PASPP mice and investigated whether P2Y6 receptor-mediated plaque clearance affects synaptic plasticity. […] First, it was observed that LTP at the schaffer collateral synapse within the CA1 region was depressed in PSAPP mice, as compared with littermates (FIG. 8(A)).

Test [2] relates to PSAPP mice. Nature of the test: Two-photon in vivo imaging of methoxyX04-labeled amyloid plaques in barrel cortex. On the set-up: species or system mouse. The note with it: vs ACSF. From the text:
(§1) Heterozygous mutant (K670N/M671L) APP (50% C57B6, 50% SJL) transgenic mice were crossed with heterozygous mutant (A246E) PS-1 (50% C57B6, 50% SJL) transgenic mice to generate heterozygous PSAPP transgenic mice (also referred to as PS-1/APP or PSAPP+/+ mice), which refers to animals heterozygous for the PS-1 A246E transgene and the APP K670N/M671L transgene. Non-transgenic control animals were littermates (also referred to as PSAPP_−/− mice) generated in the breeding for PSAPP transgenic animals. Mouse genotype was determined by Polymerase Chain Reaction (PCR). Both male and female mice of 6-7 months old were used for the experiments below. All animal experiments were performed in accordance with the Tufts Animal Care and Use Committee and with national regulations and policies.
In this study, PSAPP mice were anesthetized using isoflurane and a thin-skull preparation was used to minimize the surface damage. Amyloid plaques were visualized with methoxyX04 labeling and blood plasma was labeled with Rhodamine dextran to facilitate re-localization of the same imaging area. Stack images were obtained using a two-photon system (Prairie Technologies) with excitation at 850 nm. The emission was detected by external photomultiplier tubes (525/70; DLCP 575; 607/45 nm).
Animals were anesthetized and immobilized in a stereotaxic frame. […]

Another test addresses T1, P2Y6 receptor (Homo sapiens, UniProt Q15077).
T1 construct: expressed in transfected cells; host or cells: 1321N1 human astrocytoma cell line
The experiment in a line: Activation of P2Y6 receptor: receptor induced Ca2+ changes with fluo-4 in 1321N1 astrocytoma cells. Format: cell-based. Here is the method:
Synthetic ligands were tested for activation of P2Y6 receptor by measuring receptor induced Ca^2+ changes with the fluorescent Ca^2+ indicator fluo-4. 1321N1 human astrocytoma cell lines either expressing P2Y2, P2Y4 or P2Y6 receptors were plated into 24-well plates. Two days after plating, fluorometric measurements were made and responses of cells to a serial dilution of ligands were determined P2Y6 receptor-mediated Ca^2+ fluorescent change was determined by normalized accumulation of fluorescent change of 3 timepoints after ligand administration subtracted by value from ACSF control. Changes in fluorescent intensity were plotted corresponding to ligand concention in GraphPad. Dose-response curve and EC50 for each ligand was estimated using nonlinear curve fit and Sigmoidal dose-response analysis. […] The sodium salt of compound 5 was only effective at elevating Ca^2+ levels when applied to cells expressing P2Y6 receptors and not effective in P2Y2, or P2Y4 receptor expressing cells. The ability of the sodium salt of compound 5 to elevate Ca^2+ signals in P2Y6 expressing cells was attenuated by addition of the P2Y6 receptor antagonist MRS2578.
(§2) Synthetic ligands were tested for activation of P2Y6 receptor by measuring receptor induced Ca^2+ changes with the fluorescent Ca^2+ indicator fluo-4, and results are shown in FIG. 10(A)-(K). 1321N1 human astrocytoma cell lines either expressing P2Y2, P2Y4 or P2Y6 receptors were plated into 24-well plates. Two days after plating, fluorometric measurements were made and responses of cells to a serial dilution of ligands were determined P2Y6 receptor-mediated Ca^2+ fluorescent change was determined by normalized accumulation of fluorescent change of 3 timepoints after ligand administration subtracted by value from ACSF control. Changes in fluorescent intensity were plotted corresponding to ligand concentration in GraphPad. Dose-response curve and EC50 for each ligand was estimated using nonlinear curve fit and Sigmoidal dose-response analysis. […]

Test [3] concerns PSAPP mice. The experiment in a line: Contextual fear conditioning test (freezing behavior). Format: in vivo, mouse. Here is the method:
On day one, animals were trained in a fear conditioning apparatus for a total of 7 minutes with a two-pairing paradigm of cue and mild foot shock (a 30-s acoustic-conditioned stimulus, 80 dB; a 2-s shock stimulus, 0.5 mA). To evaluate contextual fear learning, the animals were returned to the training context 24 hours post-training, and freezing behavior was scored for 5 minutes. Freezing behavior was monitored by MotorMonitor (Hamilton Kinder) and scored every 5 seconds.
In this study, the fear conditioning associative learning paradigm was used as a rapid cognition assay for PSAPP mice. This study allowed us to probe cognitive function with a single training day followed in 24 hours by tests for contextual and cued fear learning. Contextual fear learning is dependent upon a brain area that has been implicated as a locus for cognitive decline in AD: the hippocampus. Two pairings of CS-US for fear conditioning were followed 24 hours later by testing for contextual and cued fear learning. Previous studies have reported that PSAPP animals appear to have a selective hippocampus-dependent impairment in associative learning following two pairings of conditioned stimuli for fear conditioning.
This represents a decrease in the cognitive impairment observed in the untreated mice.

The subject of test [4] is PSAPP mice. The experiment in a line: Postmortem immunohistochemistry of plaque load in cortex and hippocampus. Format: in vivo, mouse.
Excerpt: as §1
Mice were perfused transcardially with 4% paraformaldehyde and 40 μm Coronal sections were collected. Sections were sequentially incubated in 0.3% H2O2 for 10 minutes, blocking solution for 2 hrs, blocking solution containing the primary antibody (rabbit anti-beta1-42; rabbit anti-beta1-40, from Chemicon International and rat anti-CD45) for 48 hours at 4° C., and blocking solution containing biotinylated antibody or fluorescently-labeled antibody for 2 hours at room temperature. Sections were visualized in a bright field microscope or a confocal microscope, and the optical density was obtained using MetaMorph software.
After repeated imaging, brains were fixed and subjected to postmortem immunohistochemistry with amyloid beta specific antibodies β1-40 and β1-42 to evaluate the plaque load (area occupied by immunostaining of plaque) in cortex and hippocampus.
PSB0474 was systemically administered to PSAPP mice via intraperitoneal injection for 2, 4 and 6 consecutive days. In one group, prior to evaluation and following to administration for 6 consecutive days, treatment was suspended for two weeks (6+2 weeks group). Brains were then fixed and plaque load was evaluated by immunostaining with the amyloid beta specific antibodies: β1-40 and β1-42. Representative images of plaque load in cortex and hippocampus from animals that received injections of PSB0474 according to the foregoing injection schedules are shown in FIG. 5(A)-(D). […] Whereas, when administration of PSB0474 was stopped for 2 weeks following six consecutive days of treatment (denoted as the 6+2 weeks group), β1-40 staining rebounded; although to a level lower than observed in mice treated with saline as a vehicle control. FIGS. 6A and 6B depict the reduction in plaque load (%) the cortex and hippocampus, respectively, in PSAPP mice after treatment with 3-phenacyl-UDP for 2, 4, or 6 consecutive days, as assayed by staining with the β1-40 antibody. FIGS. 6C-6F depict data obtained following administration of different dosages of PSB0474.
To generate these graphs showing plaque load, mice were euthanized, brain sections cut and antibodies directed against Aβ 42 were used to disclose Aβ plaques. Images were acquired digitally and an algorithm was applied to threshold the image so that plaques were isolated from the background. The algorithm then calculated the percent area of the field of view occupied by the plaques.

A further test has as its target T2, P2Y4 receptor (Homo sapiens, UniProt P51582).
T2 construct: expressed in transfected cells; host or cells: 1321N1 human astrocytoma cell line
Nature of the test: Ca2+ mobilization (fluo-4) in 1321N1 astrocytoma cells expressing P2Y4 receptor. It is filed as cell-based. To be noted: sodium salt; 1321N1 cells expressing P2Y4. Here is the method:
as §2, with “fluo-4.” for “fluo-4, and results are shown in FIG. 10(A)-(K).”, “concention” for “concentration”
(§3) Synthetic ligands were tested for activation of P2Y6 receptor by measuring receptor induced Ca^2+ changes with the fluorescent Ca^2+ indicator fluo-4, and results are shown in FIG. 10(A)-(K). […] Two days after plating, fluorometric measurements were made and responses of cells to a serial dilution of ligands were determined P2Y6 receptor-mediated Ca^2+ fluorescent change was determined by normalized accumulation of fluorescent change of 3 timepoints after ligand administration subtracted by value from ACSF control. […]

For a further test, the system named is wildtype mice. The experiment in a line: Plasma cytokine levels in wildtype mice. It is filed as in vivo, mouse. To be noted: wildtype animals, 1 ug/kg i.p. daily x7. Here is the method: (§4) Inflammatory cytokines were assessed in mouse plasma of both wild type and PS1/APP mice (Alzheimer's mouse model) and the impact of intraperitoneal delivery of compound 5 on circulating cytokines was assessed. Seven daily intraperitoneal injections of 1 ug/kg of compound 5 were delivered to mice. 24 hours following the final injection, plasma was collected. Wildtype, age matched littermates and PSAPP mice (>6 months of age) were treated either with vehicle (phosphate buffered saline) or vehicle containing compound.

In test [5] the test system is PSAPP mice. The experiment in a line: Plasma cytokine levels in PSAPP mice. It is filed as in vivo, mouse. Here is the method: as §4
In the next test the target is T3, P2Y2 receptor (Homo sapiens, UniProt P41231).
T3 construct: expressed in transfected cells; host or cells: 1321N1 human astrocytoma cell line
Nature of the test: Ca2+ mobilization (fluo-4) in 1321N1 astrocytoma cells expressing P2Y2 receptor. The note with it: sodium salt; 1321N1 cells expressing P2Y2. Format: cell-based. As to the method:
as §2, with “fluo-4.” for “fluo-4, and results are shown in FIG. 10(A)-(K).”, “concention” for “concentration”
as §3
(Calcium assays in cells follow changes in intracellular calcium, usually with a dye or a luminescent sensor.)

The mark [6] stands for this setting: β1-42 antibody, i.p. daily 7 days, vs vehicle.

T1 sequence (Q15077 whole entry): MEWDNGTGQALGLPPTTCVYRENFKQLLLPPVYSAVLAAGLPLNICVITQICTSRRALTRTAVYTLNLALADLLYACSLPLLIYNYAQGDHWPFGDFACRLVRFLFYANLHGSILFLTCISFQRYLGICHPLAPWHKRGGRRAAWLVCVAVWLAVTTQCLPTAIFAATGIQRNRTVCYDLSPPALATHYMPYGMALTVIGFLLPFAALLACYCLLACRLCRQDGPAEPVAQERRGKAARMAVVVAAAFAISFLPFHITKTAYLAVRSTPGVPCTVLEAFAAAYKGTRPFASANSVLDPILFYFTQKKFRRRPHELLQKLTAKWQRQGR
T2 sequence (P51582 whole entry): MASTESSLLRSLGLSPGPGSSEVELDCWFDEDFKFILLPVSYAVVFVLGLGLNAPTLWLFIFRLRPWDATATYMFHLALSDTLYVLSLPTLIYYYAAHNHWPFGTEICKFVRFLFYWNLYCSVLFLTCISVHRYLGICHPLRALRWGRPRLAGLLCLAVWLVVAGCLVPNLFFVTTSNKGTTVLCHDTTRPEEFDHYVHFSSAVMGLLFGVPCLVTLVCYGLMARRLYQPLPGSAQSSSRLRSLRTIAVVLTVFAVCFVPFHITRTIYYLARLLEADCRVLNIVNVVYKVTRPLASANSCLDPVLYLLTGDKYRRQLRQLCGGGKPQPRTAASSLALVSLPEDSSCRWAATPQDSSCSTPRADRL
T3 sequence (P41231 whole entry): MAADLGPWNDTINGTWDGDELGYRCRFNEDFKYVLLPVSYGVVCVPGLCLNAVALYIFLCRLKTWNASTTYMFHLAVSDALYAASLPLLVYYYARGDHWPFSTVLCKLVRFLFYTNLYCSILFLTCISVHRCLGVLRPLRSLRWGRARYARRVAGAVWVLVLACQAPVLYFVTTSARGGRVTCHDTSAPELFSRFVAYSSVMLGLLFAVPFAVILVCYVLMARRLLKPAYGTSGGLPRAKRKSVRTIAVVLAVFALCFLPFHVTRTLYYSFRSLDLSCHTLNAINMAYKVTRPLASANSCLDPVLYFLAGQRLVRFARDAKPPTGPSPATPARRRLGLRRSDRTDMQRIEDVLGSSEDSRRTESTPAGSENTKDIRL

For `O=c1ccn([C@@H]2O[C@H](COP(=O)(O)OP(=O)(O)O)[C@@H](O)[C@H]2O)c(=O)[nH]1` [UDP, uridine diphosphate], the “LTP (fEPSP %) at schaffer collateral synapse, CA1” value in the test on PSAPP mice [1] (vs ACSF) is given as “significantly increased”. For the same compound, in the test on PSAPP mice [1] (comparable to littermates), the “last 15 min potentiation, field excitatory postsynaptic potential (fEPSP)” value was “significant increase”. In the test on PSAPP mice [2] (FIG. 2D), the “plaque load, day 4/day 1 ratio” value is “reduces”. In the test with PSAPP mice [2] (FIG. 2E), the “number of plaques, day 4/day 1 ratio” value is “reduces”.

Consider `S=C=Nc1cccc(NC(=S)NCCCCNC(=S)Nc2cccc(N=C=S)c2)c1` [MRS2578, reference compound], for which the “effect of antagonist on Ca2+ signals elevated by sodium salt of compound 5” value on P2Y6 receptor (P2Y6 expressing cells, antagonist added) is listed as “attenuated”.

With `O=C(Cn1c(=O)ccn(C2OC(COP(=O)(O)OP(=O)(O)O)C(O)C2O)c1=O)c1ccccc1` (stereo not drawn) [PSB0474, 3-phenacyl-UDP], the “memory deficit (freezing time), contextual fear conditioning” value in the test with PSAPP mice [3] (one week treatment with 1 ug/kg, vs vehicle) was “rescued the memory deficit”. Also, the β1-40 staining result with PSAPP mice [4] (6 consecutive days then stopped for 2 weeks, level still lower than saline vehicle) was “rebounded”. Also, in the test on PSAPP mice [4] (higher dose of 1 mg/kg, one week daily), the “effects on the efficacy endpoint (plaque load)” value was “smaller effects”. Further, the “immunoreactivity of β1-40 in cortex and hippocampus” value in the test with PSAPP mice [4] (i.p. for 4 consecutive days) and in the test on PSAPP mice [4] (i.p. for 6 consecutive days) was “significantly decreased” throughout.

A word on the EC50: it is the concentration at which the effect is half-maximal. For `O=c1ccn([C@@H]2O[C@H](COP(=O)(O)OP(=O)(O)O)C(O)[C@@H]2O)c(=O)n1Cc1noc2ccccc12` (stereo partly drawn) [compound 5], the “elevating Ca2+ levels in P2Y4 receptor expressing cells” value at P2Y4 receptor is given as “not effective”. In the test with wildtype mice, the “plasma IL-2 level” value is “reduced” and the “plasma IL-10 level” value is recorded as “reduced”. Further, in the test on PSAPP mice [5] (1 ug/kg i.p. daily x7), the “plasma IL-2 level” value is “reduced”, the “plasma IL-7 level” value is “reduced”, the “plasma IL-9 level” value is given as “reduced” and the “plasma IL-10 level” value was “reduced”. In the test on PSAPP mice [5] (1 ug/kg i.p. daily x7), the “plasma IL-15 level” value is on record as “reduced”, the “plasma MIG level” value is given as “reduced” and the “plasma MIP1α level” value was “reduced”. Moreover, in the test on PSAPP mice [5] (1 ug/kg i.p. daily x7, 24 hours after final injection), the “plasma IL-1β level” value is given as “reduced”. The “elevating Ca2+ levels in cells expressing P2Y6 receptors” value on P2Y6 receptor (sodium salt, 1321N1 cells expressing P2Y6) is listed as “effective”. For the same compound, the EC50 on P2Y6 receptor (sodium salt, Ca2+ fluorescent change, 1321N1 cells expressing P2Y6 receptor) stood at 12 nM. Moreover, the “elevating Ca2+ levels in P2Y2 receptor expressing cells” value on P2Y2 receptor is “not effective”. In addition, the “freezing behavior (freezing %), contextual fear conditioning” value with PSAPP mice [3] (i.p. daily for 7 consecutive days, vs vehicle control) is listed as “significantly improved”. Besides, in the test with PSAPP mice [4] (setting [6]), the “Aβ plaque load (%) in cortex” value was “substantial decrease” and the “Aβ plaque load (%) in hippocampus” value is recorded as “substantial decrease”.
